Reference: ChEMBL document CHEMBL1146222, “Cyclic depsipeptides, ichthyopeptins A and B, from Microcystis ichthyoblabe” (J Nat Prod, 2007)
Converted amounts (≈) assume the structure as drawn.

Test system: Influenza A virus
Test: Antiviral activity against Influenza A virus (A/WSN/33/London (H1N1)) in MDCK cells after 72 hrs by neutral red dye uptake assy
Assay type: functional, organism-based

In the case of `NC12CC3CC(CC(C3)C1)C2` [AMANTADINE], the IC50 was 15 µg/mL (≈ 99.2 µM).
